Calls of active or inactive are those of the source. The rule behind the calls is not given here.
Key:
[1] = (§1) Cytotoxicity against mouse JB6 cells by trypan blue exclusion test; assay type: functional, cell-based
[2] = target: T1, Ornithine decarboxylase (Mus musculus) (UniProt P00860); test: Inhibition of 12-O-tetradecanoylphorbol 13-acetate-induced ornithine decarboxylase activity in mouse ME308 cells; assay type: cell-based
T1 sequence (whole entry): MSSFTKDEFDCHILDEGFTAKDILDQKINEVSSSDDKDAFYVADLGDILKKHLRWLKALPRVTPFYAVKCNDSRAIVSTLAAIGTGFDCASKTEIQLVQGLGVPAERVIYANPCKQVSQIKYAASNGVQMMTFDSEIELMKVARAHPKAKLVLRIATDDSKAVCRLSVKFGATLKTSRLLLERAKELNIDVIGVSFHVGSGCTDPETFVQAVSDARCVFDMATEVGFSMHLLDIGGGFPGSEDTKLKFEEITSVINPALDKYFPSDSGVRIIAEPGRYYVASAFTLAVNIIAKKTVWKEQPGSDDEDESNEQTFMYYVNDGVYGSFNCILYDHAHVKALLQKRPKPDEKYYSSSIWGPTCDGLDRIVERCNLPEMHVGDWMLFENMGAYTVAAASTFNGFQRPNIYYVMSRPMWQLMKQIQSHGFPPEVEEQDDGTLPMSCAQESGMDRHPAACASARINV

[3] = Inhibition of 12-O-tetradecanoylphorbol 13-acetate-induced transformation of mouse JB6 cells after 14 days by soft agar transformation assay; assay type: functional
KB = test: Cytotoxicity against human KB cells; assay type: functional, cell-based
JB6 = test: as §1; assay type: functional, cell-based

SMILES | IC50 [1] [µM] | Activity [2] [µM] | Activity [3] [µM] | IC50 (KB) [µM] | Activity (JB6)
C=C[C@@]1(C)CCC2=C(C1)C(=O)C[C@H]1[C@](C)(C(=O)O)CCC[C@]21C | > 60 | 0.98 | 12.6 | > 60 | –
COc1cc(C[C@H]2C(=O)OC[C@@H]2Cc2ccc3c(c2)OCO3)cc(OC)c1OC | – | 6.5 | 3.75 | – | Active
C=C[C@]1(C)C=C2C(=O)C[C@@H]3[C@](C)(CCC[C@@]3(C)C(=O)O)[C@H]2CC1 | > 60 | 0.5 | 11.7 | > 60 | –
COc1cc([C@@H]2c3cc4c(cc3C[C@H]3COC(=O)[C@@H]32)OCO4)cc(OC)c1OC [DESOXYPODOPHYLLOTOXIN] | – | < 0.08 | 0.004 | – | Active
COc1cc([C@H]2c3cc4c(cc3C[C@H]3COC(=O)[C@H]32)OCO4)cc(OC)c1OC [ISOPICRODEOXYPODOPHYLLOTOXIN] | – | 0.55 | 0.18 | – | Active
C=C[C@@]1(C)CC[C@H]2C(=CC[C@@H]3[C@]2(C)CCC[C@@]3(C)C(=O)O)C1 [ISOPIMARIC ACID] | > 60 | 0.86 | 13.2 | > 60 | –
CC1=C(/C=C/C(C)=C/C=C/C(C)=C\C(=O)O)C(C)(C)CCC1 [ISOTRETINOIN] | – | 0.6 | 0.021 | – | –
